Measured values from PubChem BioAssay (NCI).
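Compound exposure: 48 hours, 5 concentrations, 96-well plates. TGI is the concentration that stops growth completely.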

Columns and labels:
Assay in all cases: NCI-60 cell line screen, 48 h
SK-OV-3 ovarian = test system: SK-OV-3 ovarian
MCF7 breast = test system: MCF7 breast
EKVX NSCLC = test system: EKVX NSCLC
SK-MEL-28 melanoma = test system: SK-MEL-28 melanoma
OVCAR-3 ovarian = test system: OVCAR-3 ovarian
HCT-116 colon = test system: HCT-116 colon
MDA-MB-435 = test system: MDA-MB-435
TK-10 renal = test system: TK-10 renal
MDA-N = test system: MDA-N
SW-620 colon = test system: SW-620 colon
COLO 205 colon = test system: COLO 205 colon
SF-268 CNS = test system: SF-268 CNS
A549 NSCLC = test system: A549 NSCLC
OVCAR-8 ovarian = test system: OVCAR-8 ovarian
K-562 leukemia = test system: K-562 leukemia
SNB-19 CNS = test system: SNB-19 CNS
UACC-62 melanoma = test system: UACC-62 melanoma
RXF 393 renal = test system: RXF 393 renal
HL-60(TB) leukemia = test system: HL-60(TB) leukemia
IGROV1 ovarian = test system: IGROV1 ovarian
786-0 renal = test system: 786-0 renal
MALME-3M melanoma = test system: MALME-3M melanoma
UACC-257 melanoma = test system: UACC-257 melanoma
SF-295 CNS = test system: SF-295 CNS
CAKI-1 renal = test system: CAKI-1 renal
LOX IMVI melanoma = test system: LOX IMVI melanoma
NCI/ADR-RES ovarian = test system: NCI/ADR-RES ovarian
U251 CNS = test system: U251 CNS
HS 578T breast = test system: HS 578T breast
BT-549 breast = test system: BT-549 breast
PC-3 prostate = test system: PC-3 prostate
HOP-92 NSCLC = test system: HOP-92 NSCLC
HOP-62 NSCLC = test system: HOP-62 NSCLC
HT29 colon = test system: HT29 colon
OVCAR-5 ovarian = test system: OVCAR-5 ovarian
ACHN renal = test system: ACHN renal
UO-31 renal = test system: UO-31 renal
OVCAR-4 ovarian = test system: OVCAR-4 ovarian
SNB-75 CNS = test system: SNB-75 CNS
CCRF-CEM leukemia = test system: CCRF-CEM leukemia
SR leukemia = test system: SR leukemia
SF-539 CNS = test system: SF-539 CNS
SK-MEL-5 melanoma = test system: SK-MEL-5 melanoma
DU-145 prostate = test system: DU-145 prostate
M14 melanoma = test system: M14 melanoma
A498 renal = test system: A498 renal
HCT-15 colon = test system: HCT-15 colon
HCC-2998 colon = test system: HCC-2998 colon
RPMI-8226 leukemia = test system: RPMI-8226 leukemia
NCI-H522 lung = test system: NCI-H522 lung
MOLT-4 leukemia = test system: MOLT-4 leukemia
KM12 colon = test system: KM12 colon
NCI-H460 lung = test system: NCI-H460 lung
MDA-MB-231 breast = test system: MDA-MB-231 breast
SN12C renal = test system: SN12C renal
NCI-H226 lung = test system: NCI-H226 lung
NCI-H23 lung = test system: NCI-H23 lung
SK-MEL-2 melanoma = test system: SK-MEL-2 melanoma
T-47D breast = test system: T-47D breast

C=C(Cl)[C@](Cl)(CBr)CC[C@@H](Br)C(C)(C)Cl
TGI (SK-OV-3 ovarian): 25.3 µM | TGI (MCF7 breast): 2.18 µM | TGI (EKVX NSCLC): 8.04 µM | TGI (SK-MEL-28 melanoma): 3.27 µM | TGI (OVCAR-3 ovarian): 1.58 µM | TGI (HCT-116 colon): 1.38 µM | TGI (MDA-MB-435): 4.03 µM | TGI (TK-10 renal): 3.4 µM | TGI (MDA-N): 2.47 µM | TGI (SW-620 colon): 5.03 µM | TGI (COLO 205 colon): 3.41 µM | TGI (SF-268 CNS): 2.18 µM | TGI (A549 NSCLC): 5.49 µM | TGI (OVCAR-8 ovarian): 2.86 µM | TGI (K-562 leukemia): 16.3 µM | TGI (SNB-19 CNS): 3.27 µM | TGI (UACC-62 melanoma): 19.3 µM | TGI (RXF 393 renal): 0.576 µM | TGI (HL-60(TB) leukemia): 2.06 µM | TGI (IGROV1 ovarian): 21.2 µM | TGI (786-0 renal): 0.552 µM | TGI (MALME-3M melanoma): 24.2 µM | TGI (UACC-257 melanoma): 2.99 µM | TGI (SF-295 CNS): 2.23 µM | TGI (CAKI-1 renal): 0.751 µM | TGI (LOX IMVI melanoma): 32.1 µM | TGI (NCI/ADR-RES ovarian): 4.32 µM | TGI (U251 CNS): 0.335 µM | TGI (HS 578T breast): 1.41 µM | TGI (BT-549 breast): 11.7 µM | TGI (PC-3 prostate): 1.18 µM | TGI (HOP-92 NSCLC): 1.1 µM | TGI (HOP-62 NSCLC): 0.9 µM | TGI (HT29 colon): 2.06 µM | TGI (OVCAR-5 ovarian): 2.98 µM | TGI (ACHN renal): 2.31 µM | TGI (UO-31 renal): 2.41 µM | TGI (OVCAR-4 ovarian): 3.44 µM | TGI (SNB-75 CNS): 2.09 µM | TGI (CCRF-CEM leukemia): 46.6 µM | TGI (SR leukemia): 25.5 µM | TGI (SF-539 CNS): 1.28 µM | TGI (SK-MEL-5 melanoma): 24.9 µM | TGI (DU-145 prostate): 2.74 µM | TGI (M14 melanoma): 30.7 µM | TGI (A498 renal): 3.41 µM | TGI (HCT-15 colon): 4.64 µM | TGI (HCC-2998 colon): 2.93 µM | TGI (RPMI-8226 leukemia): 0.363 µM | TGI (NCI-H522 lung): 30.2 µM | TGI (MOLT-4 leukemia): 31.9 µM | TGI (KM12 colon): 2.26 µM | TGI (NCI-H460 lung): 2.46 µM | TGI (MDA-MB-231 breast): 3.39 µM | TGI (SN12C renal): 17.6 µM | TGI (NCI-H226 lung): 32.8 µM | TGI (NCI-H23 lung): 28.5 µM

O=C(c1ccc(Cl)c(Cl)c1)N(C(=S)OC12CC3CC(CC(C3)C1)C2)c1ccccc1
TGI (SK-OV-3 ovarian): > 100 µM | TGI (MCF7 breast): > 100 µM | TGI (EKVX NSCLC): 72.5 µM | TGI (SK-MEL-28 melanoma): > 100 µM | TGI (OVCAR-3 ovarian): > 100 µM | TGI (HCT-116 colon): 68.8 µM | TGI (MDA-MB-435): > 100 µM | TGI (TK-10 renal): > 100 µM | TGI (MDA-N): > 100 µM | TGI (SW-620 colon): > 100 µM | TGI (COLO 205 colon): 29.4 µM | TGI (SF-268 CNS): > 100 µM | TGI (A549 NSCLC): > 100 µM | TGI (OVCAR-8 ovarian): > 100 µM | TGI (K-562 leukemia): > 100 µM | TGI (SNB-19 CNS): > 100 µM | TGI (UACC-62 melanoma): 98.5 µM | TGI (RXF 393 renal): > 100 µM | TGI (HL-60(TB) leukemia): 69.9 µM | TGI (786-0 renal): > 100 µM | TGI (MALME-3M melanoma): > 100 µM | TGI (UACC-257 melanoma): > 100 µM | TGI (SF-295 CNS): > 100 µM | TGI (CAKI-1 renal): > 100 µM | TGI (SK-MEL-2 melanoma): 40.5 µM | TGI (NCI/ADR-RES ovarian): > 100 µM | TGI (U251 CNS): > 100 µM | TGI (HS 578T breast): > 100 µM | TGI (BT-549 breast): > 100 µM | TGI (PC-3 prostate): > 100 µM | TGI (HOP-92 NSCLC): > 100 µM | TGI (HOP-62 NSCLC): > 100 µM | TGI (T-47D breast): > 100 µM | TGI (HT29 colon): > 100 µM | TGI (OVCAR-5 ovarian): > 100 µM | TGI (ACHN renal): > 100 µM | TGI (UO-31 renal): 64.3 µM | TGI (OVCAR-4 ovarian): > 100 µM | TGI (SNB-75 CNS): > 100 µM | TGI (CCRF-CEM leukemia): > 100 µM | TGI (SF-539 CNS): > 100 µM | TGI (SK-MEL-5 melanoma): 40.1 µM | TGI (DU-145 prostate): > 100 µM | TGI (M14 melanoma): 48.3 µM | TGI (A498 renal): > 100 µM | TGI (HCT-15 colon): > 100 µM | TGI (HCC-2998 colon): > 100 µM | TGI (NCI-H522 lung): 41.7 µM | TGI (KM12 colon): > 100 µM | TGI (NCI-H460 lung): > 100 µM | TGI (MDA-MB-231 breast): > 100 µM | TGI (SN12C renal): > 100 µM | TGI (NCI-H226 lung): > 100 µM | TGI (NCI-H23 lung): > 100 µM

CC(=O)OC[C@@]1(C)[C@@H]2[C@@H]3[C@@]4(CO[C@]3(C)C(=O)[C@@]3(OC(C)=O)C[C@H](C)[C@H](OC(C)=O)[C@@H]3[C@H]4OC(C)=O)[C@H](OC(=O)c3ccccc3)C[C@@H]21
TGI (SK-OV-3 ovarian): > 100 µM | TGI (MCF7 breast): > 100 µM | TGI (EKVX NSCLC): > 100 µM | TGI (SK-MEL-28 melanoma): > 100 µM | TGI (OVCAR-3 ovarian): > 100 µM | TGI (HCT-116 colon): > 100 µM | TGI (MDA-MB-435): > 100 µM | TGI (TK-10 renal): > 100 µM | TGI (MDA-N): > 100 µM | TGI (SW-620 colon): > 100 µM | TGI (COLO 205 colon): > 100 µM | TGI (SF-268 CNS): > 100 µM | TGI (A549 NSCLC): > 100 µM | TGI (OVCAR-8 ovarian): > 100 µM | TGI (K-562 leukemia): > 100 µM | TGI (SNB-19 CNS): > 100 µM | TGI (UACC-62 melanoma): > 100 µM | TGI (RXF 393 renal): > 100 µM | TGI (HL-60(TB) leukemia): > 100 µM | TGI (IGROV1 ovarian): > 100 µM | TGI (786-0 renal): > 100 µM | TGI (MALME-3M melanoma): > 100 µM | TGI (UACC-257 melanoma): > 100 µM | TGI (SF-295 CNS): > 100 µM | TGI (CAKI-1 renal): > 100 µM | TGI (LOX IMVI melanoma): > 100 µM | TGI (SK-MEL-2 melanoma): > 100 µM | TGI (NCI/ADR-RES ovarian): > 100 µM | TGI (U251 CNS): > 100 µM | TGI (HS 578T breast): > 100 µM | TGI (BT-549 breast): > 100 µM | TGI (PC-3 prostate): > 100 µM | TGI (HOP-92 NSCLC): > 100 µM | TGI (HOP-62 NSCLC): > 100 µM | TGI (T-47D breast): > 100 µM | TGI (HT29 colon): > 100 µM | TGI (OVCAR-5 ovarian): > 100 µM | TGI (ACHN renal): > 100 µM | TGI (UO-31 renal): > 100 µM | TGI (OVCAR-4 ovarian): > 100 µM | TGI (SNB-75 CNS): > 100 µM | TGI (CCRF-CEM leukemia): > 100 µM | TGI (SF-539 CNS): > 100 µM | TGI (SK-MEL-5 melanoma): > 100 µM | TGI (DU-145 prostate): > 100 µM | TGI (M14 melanoma): > 100 µM | TGI (A498 renal): > 100 µM | TGI (HCT-15 colon): > 100 µM | TGI (HCC-2998 colon): > 100 µM | TGI (RPMI-8226 leukemia): > 100 µM | TGI (NCI-H522 lung): > 100 µM | TGI (KM12 colon): > 100 µM | TGI (NCI-H460 lung): > 100 µM | TGI (MDA-MB-231 breast): > 100 µM | TGI (SN12C renal): > 100 µM | TGI (NCI-H226 lung): > 100 µM | TGI (NCI-H23 lung): > 100 µM
